# Assay results reported in US5356916A, “1,2,4-oxadiazole derivatives having monoamine oxidase B enzyme-inhibitory activity” (Wakamoto Pharmaceutical Co., Ltd., priority 1991, dated 1994).
# What was measured:
# Parkinson's disease = conditions: United States and Europe; cited from earlier work
# MAO-B = target: T1, MAO-B (Rattus norvegicus, UniProt P19643); experiment: In vitro inhibition of monoamine oxidase B (oxygen electrode, rat liver mitochondria, substrate benzylamine); assay type: biochemical; conditions: for IC50: rat liver mitochondria, 37° C., preincubated, substrate benzylamine (BA), read-out: IC50 MAO-B; for MAO-A/MAO-B: ratio of IC50 values MAO-A/MAO-B
# T1 construct: mitochondria prepared from the liver of rats; from tissue; host or cells: rat liver mitochondria
# T1 sequence (P19643 1-520): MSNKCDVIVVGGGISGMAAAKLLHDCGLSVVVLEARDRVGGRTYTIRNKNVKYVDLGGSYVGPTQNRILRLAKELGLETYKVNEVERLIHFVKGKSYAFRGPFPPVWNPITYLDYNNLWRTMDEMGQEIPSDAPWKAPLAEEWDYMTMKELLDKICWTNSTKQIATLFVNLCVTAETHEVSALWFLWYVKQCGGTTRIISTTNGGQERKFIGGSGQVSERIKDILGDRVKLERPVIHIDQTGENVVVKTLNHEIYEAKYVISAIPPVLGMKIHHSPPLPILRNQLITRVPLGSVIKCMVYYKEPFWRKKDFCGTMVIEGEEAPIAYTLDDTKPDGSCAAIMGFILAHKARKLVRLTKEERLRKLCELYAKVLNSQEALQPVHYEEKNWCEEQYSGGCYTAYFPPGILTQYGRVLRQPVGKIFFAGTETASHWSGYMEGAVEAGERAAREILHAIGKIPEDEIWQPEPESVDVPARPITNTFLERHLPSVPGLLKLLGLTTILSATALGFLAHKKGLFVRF
# Protocol: (§1) The MAO-inhibitory activity of the compounds of the present invention was determined according to an MAO-inhibitory activity determining method using the oxygen electrode disclosed in K. F. Tipton et al., Biochem. J., 1968,108, pp. 95-99.
# (§2) A potassium phosphate buffer solution of mitochondria prepared from the liver of rats was preincubated at 37° C. with or without a compound of the present invention and then a substrate was added to the mixture to thus initiate the reaction at that temperature while the dissolved oxygen-consuming reaction due to MAO activity in the reaction solution was monitored by the oxygen electrode. In this respect, the substrates used were serotonin (5-HT) for the MAO-A activity determination and benzylamine (BA) for the MAO-B activity determination. The MAO-inhibitory activity was evaluated in terms of an IC5.sbsb.0 value which is the concentration of a compound tested required for reducing the rate of oxygen-consuming reaction performed in the presence of the compound to 50% of that of the reaction performed in the absence of the compound.
# MAO-A = target: T2, MAO-A (Rattus norvegicus, UniProt P21396); experiment: In vitro inhibition of monoamine oxidase A (oxygen electrode, rat liver mitochondria, substrate serotonin); assay type: biochemical; conditions: rat liver mitochondria, 37° C., preincubated, substrate serotonin (5-HT); read-out: IC50 MAO-A
# T2 construct: mitochondria prepared from the liver of rats; from tissue; host or cells: rat liver mitochondria
# T2 sequence (P21396 1-526): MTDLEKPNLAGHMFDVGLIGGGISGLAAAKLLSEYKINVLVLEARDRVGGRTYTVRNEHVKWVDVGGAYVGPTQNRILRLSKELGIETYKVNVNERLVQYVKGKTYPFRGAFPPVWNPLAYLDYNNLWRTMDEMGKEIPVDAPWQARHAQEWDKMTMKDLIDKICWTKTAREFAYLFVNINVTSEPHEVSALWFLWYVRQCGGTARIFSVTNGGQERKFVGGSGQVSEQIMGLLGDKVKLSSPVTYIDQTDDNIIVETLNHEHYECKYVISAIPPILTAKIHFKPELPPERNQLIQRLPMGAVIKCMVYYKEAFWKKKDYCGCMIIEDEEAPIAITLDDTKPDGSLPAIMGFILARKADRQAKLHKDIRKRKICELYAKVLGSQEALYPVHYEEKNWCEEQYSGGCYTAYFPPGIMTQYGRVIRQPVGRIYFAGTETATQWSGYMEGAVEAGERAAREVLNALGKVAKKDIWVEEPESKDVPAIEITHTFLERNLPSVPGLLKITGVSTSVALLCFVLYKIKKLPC
# Protocol: as §1, §2
structure (smiles),measurement,setting,value
"C#CCN(C)C(C)Cc1ccccc1 (racemic) [d,l-Deprenil]",clinical effectiveness in Parkinson's disease (in words),Parkinson's disease,effectiveness of this compound has clinically been proved
"CNc1nc(-c2ccc(OCCCn3ccnc3)cc2)no1 [Example 32, 3-[4-[3-(1H-imidazol-1-yl)propoxy]phenyl]-5-methyl-amino-1,2,4-oxadiazole]",IC50,MAO-B,1.2 µM
same,MAO-A/MAO-B,MAO-B,92
same,IC50,MAO-A,110 µM
"CNc1nc(-c2ccc(OCc3ccccc3)cc2)no1 [Example 33, 3-(4-benzyloxyphenyl)-5-methylamino-1,2,4-oxadiazole]",IC50,MAO-B,7 µM
same,MAO-A/MAO-B,MAO-B,14
same,IC50,MAO-A,100 µM
